In patent publication US20050009840A1 (SUGEN, INC., priority 2003, published 2005) one finds IC50 data, which are given here for 35 molecules.

Like-named read-outs stand apart in the source and are kept apart here.

The term IC50 denotes the concentration needed to halve the response being measured.

In this experiment the target is T1, Met kinase domain (GST fusion protein) (Homo sapiens, UniProt P08581).
T1 construct: Purified GST fusion protein containing the Met kinase domain
In words: Met transphosphorylation assay (ELISA, poly(glu-tyr) substrate).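 Further: Cell-free ELISA with plate-bound poly(Glu:Tyr 4:1) phosphorylated by GST-fused Met kinase domain plus ATP and Mn2+, phosphotyrosine detected by anti-phosphotyrosine antibody with HRP and ABTS read-out.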 The format is biochemical. The conditions noted are these: read-out: Met IC50.

The mark [1] stands for this setting: plain numbers in column Met IC50 (μM) of Table 2.

T1 sequence (P08581 1078-1345 limits assumed): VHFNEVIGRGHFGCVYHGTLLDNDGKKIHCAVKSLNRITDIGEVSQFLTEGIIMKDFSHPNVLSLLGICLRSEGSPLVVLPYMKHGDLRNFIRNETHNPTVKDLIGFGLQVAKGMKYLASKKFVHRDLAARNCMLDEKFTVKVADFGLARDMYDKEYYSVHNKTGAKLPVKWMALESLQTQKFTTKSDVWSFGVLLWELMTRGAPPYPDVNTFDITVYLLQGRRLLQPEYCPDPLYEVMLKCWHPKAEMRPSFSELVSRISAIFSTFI

As for `Nc1ncc(-c2ccc(OCCN3CCOCC3)cc2)cc1OCc1cccc2ccccc12` [Example I-107, 5-[4-(2-Morpholin-4-yl-ethoxy)-phenyl]-3-(naphthalen-1-ylmethoxy)-pyridin-2-ylamine], the IC50 was 7.7 µM.

Take `Nc1ncc(-c2cccc(OC(F)(F)F)c2)cc1OCc1c(Cl)cccc1Cl` [Example I-18, 3-(2,6-Dichloro-benzyloxy)- -5-(3-trifluoromethoxy-phenyl)-pyridin-2-ylamine]: the half-maximal inhibitory concentration (IC50) was more than 20 µM.

Take `Nc1ncc(-c2ccc(C(=O)O)cc2)cc1OCc1c(Cl)cccc1Cl` [Example I-35, 4-[6-Amino-5-(2,6-dichloro-benzyloxy)-pyridin-3-yl]-benzoic acid]: the concentration for half-maximal inhibition (IC50) came out at 12.8 µM.

Turning to `CC(Oc1nc(-c2ccncc2)cnc1N)c1c(Cl)ccc(F)c1Cl` (centres unmarked) [II-200, 3-[1-(2,6-Dichloro-3-fluoro-phenyl)-ethoxy]-5-pyridin-4-yl-pyrazin-2-ylamine], the IC50 amounted to 0.045 µM.

As for `CC(Oc1nc(-c2cccc(C(=O)NC3CCN(C)CC3)c2)cnc1N)c1c(F)ccc(F)c1Cl` (centres unmarked) [II-98, 3-{5-Amino-6-[1-(2-chloro-3,6-difluoro-phenyl)-ethoxy]-pyrazin-2-yl}-N-(1-methyl-piperidin-4-yl)-benzamide], the concentration for half-maximal inhibition (IC50) amounted to 0.21 µM.

In the case of `Nc1ncc(-c2ccc(C(=O)O)cc2)cc1OCc1c(F)ccc(F)c1Cl` [Example I-211, 4 [6 Amino-5-(2-chloro-3,6-difluoro-benzyloxy)-pyridin-3-yl]-benzoic acid], under “Table 2”, the IC50 came to 0.35 µM.

Turning to `Nc1ncc(-c2ccc3[nH]c(C(=O)NCCN4CCOCC4)cc3c2)cc1OCc1c(Cl)cccc1Cl` [Example I-82, 5-[6-Amino-5-(2,6-dichloro-benzyloxy)-pyridin-3-yl]-1H-indole-2-carboxylic acid (2-morpholin-4-yl-ethyl)-amide], the IC50 was 1.8 µM.

On to `CC(Oc1cc(-c2ccc(NC(=O)NCCN3CCOCC3)cc2)cnc1N)c1c(Cl)ccc(F)c1Cl` (centres unmarked) [Example I-374, 1-(4-{6-Amino-5-[1-(2,6-dichloro-3-fluoro-phenyl)-ethoxy]-pyridin-3-yl}-phenyl)-3-(2-morpholin-4-yl-ethyl)-urea], for which the half-maximal inhibitory concentration (IC50) under setting [1] stood at 0.062 µM.

With `CC(Oc1cc(C#CCNC(=O)N2CCN(C)CC2)cnc1N)c1c(Cl)ccc(F)c1Cl` (centres unmarked) [Example I-413, 4-Methyl-piperazine-1-carboxylic acid (3-{6-amino-5-[1-(2,6-dichloro-3-fluoro-phenyl)-ethoxy]-pyridin-3-yl}-prop-2-ynyl)-amide], the IC50 under setting [1] worked out at 0.056 µM.

Regarding `CC(=O)N1CCN(CCNC(=O)c2cccc(-c3cnc(N)c(OC(C)c4c(Cl)cccc4Cl)n3)c2)CC1` (centres unmarked) [II-176, N-[2-(4-Acetyl-piperazin-1-yl)-ethyl]-3-{5-amino-6-[1-(2,6-dichloro-phenyl)-ethoxy]-pyrazin-2-yl}-benzamide], the IC50 worked out at 0.35 µM.

On to `CC(Oc1cc(-c2ccc(C(=O)N3CCC(N)CC3)cc2)cnc1N)c1c(Cl)ccc(F)c1Cl` (centres unmarked) [Example I-305, (4-{6-Amino-5-[1-(2,6-dichloro-3-fluoro-phenyl)-ethoxy]-pyridin-3-yl}-phenyl)-(4-amino-piperidin-1-yl)-methanone], for which, under “Table 2”, the 50% inhibitory concentration (IC50) amounted to 0.18 µM.

For the molecule `Nc1ncc(-c2cccc(NS(=O)(=O)CCN3CC[C@@H](CO)C3)c2)cc1OCc1c(F)ccc(F)c1Cl` [Example I-261, 2-[(3R)-3-Hydroxymethyl-pyrrolidin-1-yl]-ethanesulfonic acid {3-[6-amino-5-(2-chloro-3,6-difluoro-benzyloxy)-pyridin-3-yl]-phenyl}-amide], the IC50 (Table 2) turned out to be 1.7 µM.

As for `CC(Oc1cc(OCCc2ccccc2)cnc1N)c1c(F)ccc(F)c1Cl` (centres unmarked) [Example I-538, 3-[1-(2-Chloro-3,6-difluoro-phenyl)-ethoxy]-5-phenethyloxy-pyridin-2-ylamine], the IC50 under setting [1] came out at 2.8 µM.

In the case of `CCC(CC)COc1cnc(N)c(OC(C)c2c(F)ccc(F)c2Cl)c1` (centres unmarked) [Example I-530, 3-[1-(2-Chloro-3,6-difluoro-phenyl)-ethoxy]-5-(2-ethyl-butoxy)-pyridin-2-ylamine], under setting [1], the 50% inhibitory concentration (IC50) stood at 4.08 µM.

Regarding `N#Cc1ccccc1COc1cc(-c2ccc(C(=O)NCCN3CCOCC3)cc2)cnc1N` [Example I-169, 4-[6-Amino-5-(2-cyano-benzyloxy)-pyridin-3-yl]-N-(2-morpholin-4-yl-ethyl)-benzamide], the half-maximal inhibitory concentration (IC50) amounted to 8.6 µM.

With `CCOC(=O)c1cc2cc(-c3cnc(N)c(OCc4c(Cl)cccc4Cl)c3)ccc2[nH]1` [Example I-76, 5-[6-Amino-5-(2,6-dichloro-benzyloxy)-pyridin-3-yl]-1H-indole-2-carboxylic acid ethyl ester], the half-inhibitory concentration (IC50) was more than 20 µM.

On to `Nc1ccc(-c2cnc(N)c(OCc3c(F)ccc(F)c3Cl)c2)cn1` [Example I-504, 5-(2-Chloro-3,6-difluoro-benzyloxy)-[3,3′]bipyridinyl-6,6′-diamine], for which the IC50 under setting [1] was found to be 0.209 µM.

Regarding `CC(Oc1nc(-c2ccc(C(=O)N3CC[C@H](N)C3)cc2)cnc1N)c1c(Cl)cccc1Cl` (stereo partly drawn) [II-165, (4-{5-Amino-6-[1-(2,6-dichloro-phenyl)-ethoxy]-pyrazin-2-yl}-phenyl)-((S)-3-aminopyrrolidin-1-yl)-methanone hydrogen chloride], the 50% inhibitory concentration (IC50) turned out to be 0.1 µM.

`Nc1ncc(-c2ccccc2)cc1OCc1c(F)cccc1Cl` [Example I-103, 3-(2-Chloro-8-fluoro-benzyloxy)-5-phenyl-pyridin-2-ylamine]: the IC50 was 7.91 µM.

Take `CC(Oc1cc(-c2ccc(NC(=O)N3CC[C@H](N)C3)cc2)cnc1N)c1c(Cl)ccc(F)c1Cl` (stereo partly drawn) [Example I-376, (S)-3-Amino-pyrrolidine-1-carboxylic acid (4-{6-amino-5-[1-(2,6-dichloro-3-fluoro-phenyl)-ethoxy]-pyridin-3-yl}-phenyl)-amide]: under setting [1], the half-maximal inhibitory concentration (IC50) turned out to be 0.052 µM.

On to `Nc1ncc(-c2cccc(C(=O)NCCCN3CCOCC3)c2)cc1OCc1c(F)ccc(F)c1Cl` [Example I-238, 3-[6-Amino-5-(2-chloro-3,6-difluoro-benzyloxy)-pyridin-3-yl]-N-(3-morpholin-4-yl-propyl)-benzamide], for which, under “Table 2”, the half-inhibitory concentration (IC50) amounted to 0.35 µM.

`Nc1ncc(-c2cccc(C(=O)N3CC[C@@H](N)C3)c2)cc1OCc1c(F)ccc(F)c1Cl` [Example I-232, {3-[6-Amino-5-(2-chloro-3,6-difluoro-benzyloxy)-pyridin-3-yl]-phenyl}-[(3R)-3-amino-pyrrolidin-1-yl]-methanone]: the IC50 (Table 2) was 0.12 µM.

Regarding `CC(Oc1nc(-c2ccc(C(=O)NC3CCN(C)CC3)cc2)cnc1N)c1c(Cl)cccc1Cl` (centres unmarked) [II-160, 4-{5-Amino-6-[1-(2,6-dichloro-phenyl)-ethoxy]-pyrazin-2-yl}-N-(1-methyl-piperidin-4-yl)-benzamide], the half-maximal inhibitory concentration (IC50) stood at 0.12 µM.

In the case of `CC(=O)N1CCN(C(=O)c2ccc(-c3cnc(N)c(OCc4ccccc4C#N)c3)cc2)CC1` [Example I-167, 2-{5-[4-(4-Acetyl-piperazine-1-carbonyl)-phenyl]-2-amino-pyridin-3-yloxymethyl}-benzonitrile], the half-maximal inhibitory concentration (IC50) turned out to be 5.7 µM.

In the case of `Nc1ncc(-c2cccc(C(=O)NCCCN3CCOCC3)c2)nc1OCc1c(F)ccc(F)c1Cl` [II-52, 3-[5-Amino-6-(2-chloro-3,6-difluoro-benzyloxy)-pyrazin-2-yl]-N-(3-morpholin-4-yl-propyl)-benzamide], the IC50 was 4.2 µM.

In the case of `Nc1ncc(-c2cccc3[nH]ccc23)cc1OCc1c(Cl)cccc1Cl` [Example I-4, 3-(2,6-Dichloro-benzyloxy)-5-(1H-indol-4-yl)-pyridin-2-ylamine], the half-maximal inhibitory concentration (IC50) stood at 1.4 µM.

With `Nc1ncc(-c2ccc(OCC(=O)N3CCC[C@@H]3CN3CCCC3)cc2)cc1OCc1c(Cl)cccc1Cl` [Example I-56, 2-{4-[6-Amino-5-(2,6-dichloro-benzyloxy)-pyridin-3-yl]-phenoxy}-1-[(2R)-2-pyrrolidin-1-ylmethyl-pyrrolidin-1-yl]-ethanone], the IC50 came out at 0.53 µM.

For `CN1CCN(C(=O)c2ccc(-c3cnc(N)c(OCc4ccc(C(C)(C)C)cc4)c3)cc2)CC1` [Example I-197, {4-[6-Amino-5-(4-tert-butyl-benzyloxy)-pyridin-3-yl]-phenyl}-(4-methyl-piperazin-1-yl)-methanone], the half-maximal inhibitory concentration (IC50) (Table 2) was 3.8 µM.

Consider `Nc1ncc(-c2ccccc2Oc2ccccc2)cc1OCc1c(Cl)cccc1Cl` [Example I-20, 3-(2,6-Dichloro-benzyloxy)-5-(2-phenoxy-phenyl)-pyridin-2-ylamine], for which the half-inhibitory concentration (IC50) was more than 20 µM.

For the molecule `Nc1ncc(-c2ccc(C(=O)NCCN3CCOCC3)cc2)nc1OCc1c(F)ccc(F)c1Cl` [II-45, 4-[5-Amino-6-(2-chloro-3,6-difluoro-benzyloxy)-pyrazin-2-yl]-N-(2-morpholin-4-yl-ethyl)-benzamide], the IC50 turned out to be 1.11 µM.

Turning to `Nc1ncc(-c2ccc(C(=O)N3CCN(C4CC4)CC3)cc2)cc1OCc1c(Cl)cccc1Cl` [Example I-48, {4-[6-Amino-5-(2,6-dichloro-benzyloxy)-pyridin-3-yl]-phenyl}-(4-cyclopropyl-piperazin-1-yl)-methanone], the IC50 is 1.67 µM.

For the molecule `Nc1ncc(-c2ccc(O)cc2)cc1OCc1c(F)cccc1F` [Example I-118, 4-[6-Amino-5-(2,6-difluoro-benzyloxy)-pyridin-3-yl]-phenyl], the IC50 worked out at 3.79 µM.

As for `CS(=O)(=O)Nc1ccc(-c2cnc(N)c(OCc3ccccc3C(N)=O)c2)cc1` [Example I-136, 2-[2-Amino-5-(4-methanesulfonylamino-phenyl)-pyridin-3-yloxymethyl]-benzamide], the IC50 is more than 20 µM.

For the molecule `CC(Oc1cc(-c2ccc(NS(=O)(=O)CCN3CCC(O)CC3)cc2)cnc1N)c1c(F)ccc(F)c1Cl` (centres unmarked) [Example I-287, 2-(4-Hydroxy-piperidin-1-yl)-ethanesulfonic acid (4-{6-amino-5-[1-(2-chloro-3,6-difluoro-phenyl)-ethoxy]-pyridin-3-yl}-phenyl)-amide], where the note is “Table 2”, the 50% inhibitory concentration (IC50) turned out to be 0.14 µM.

`CC(Oc1cc(-c2ccc(C(=O)N3CC[C@@H](N)C3)cc2)cnc1N)c1c(Cl)cccc1Cl` (stereo partly drawn) [Example I-408, (4-{6-Amino-5-[1-(2,6-dichloro-phenyl)-ethoxy]-pyridin-3-yl}-phenyl)-((R)-3-amino-pyrrolidin-1-yl)-methanone]: the IC50 under setting [1] came to 0.049 µM.
